The target in assay [1] is Poly [ADP-ribose] polymerase 1 (Homo sapiens, UniProt P09874). As to the kind of experiment: Inhibition of PARP1 (unknown origin).
Assay [2] deals with A549. Description: Potentiation of carboplatin induced antiproliferative activity against human A549 cells assessed as reduction in cell viability at 0.1 to 10 uM by MTT assay. The assay is classed as functional, cell-based. The note with it: dose 0.1-10 µM.
For assay [3], the system named is A549. As to the kind of experiment: Potentiation of carboplatin induced antiproliferative activity against human A549 cells assessed as increase in apoptotic cells at 0.1 to 10 uM by Hoechst staining based assay. The assay is classed as functional, cell-based. Conditions: dose 0.1-10 µM.
Assay [4] concerns A549. As to the kind of experiment: Potentiation of carboplatin induced antiproliferative activity against human A549 cells assessed as increase in apoptotic cells at 0.1 to 10 uM by Annexin V-PI double staining based flow cytometric analysis. It is filed as functional, cell-based. Conditions: dose 0.1-10 µM.
In assay [5] the test system is A549. As to the kind of experiment: Potentiation of carboplatin induced antiproliferative activity against human A549 cells assessed as reduction in cell viability at 10 uM by MTT assay. The assay is classed as functional, cell-based.
Assay [6] has as its system A549. As to the kind of experiment: Potentiation of carboplatin induced antiproliferative activity against human A549 cells assessed as increase in apoptotic cells at 10 uM by Hoechst staining based assay. The assay is classed as functional, cell-based.
Assay [7] relates to A549. As to the kind of experiment: Potentiation of carboplatin induced antiproliferative activity against human A549 cells assessed as increase in apoptotic cells at 10 uM by Annexin V-PI double staining based flow cytometric analysis. The assay is classed as functional, cell-based.

Active and inactive are the calls of the source. The calls are words filed in the database; no cut-off is given here.

Chain of Poly [ADP-ribose] polymerase 1 (P09874 whole entry): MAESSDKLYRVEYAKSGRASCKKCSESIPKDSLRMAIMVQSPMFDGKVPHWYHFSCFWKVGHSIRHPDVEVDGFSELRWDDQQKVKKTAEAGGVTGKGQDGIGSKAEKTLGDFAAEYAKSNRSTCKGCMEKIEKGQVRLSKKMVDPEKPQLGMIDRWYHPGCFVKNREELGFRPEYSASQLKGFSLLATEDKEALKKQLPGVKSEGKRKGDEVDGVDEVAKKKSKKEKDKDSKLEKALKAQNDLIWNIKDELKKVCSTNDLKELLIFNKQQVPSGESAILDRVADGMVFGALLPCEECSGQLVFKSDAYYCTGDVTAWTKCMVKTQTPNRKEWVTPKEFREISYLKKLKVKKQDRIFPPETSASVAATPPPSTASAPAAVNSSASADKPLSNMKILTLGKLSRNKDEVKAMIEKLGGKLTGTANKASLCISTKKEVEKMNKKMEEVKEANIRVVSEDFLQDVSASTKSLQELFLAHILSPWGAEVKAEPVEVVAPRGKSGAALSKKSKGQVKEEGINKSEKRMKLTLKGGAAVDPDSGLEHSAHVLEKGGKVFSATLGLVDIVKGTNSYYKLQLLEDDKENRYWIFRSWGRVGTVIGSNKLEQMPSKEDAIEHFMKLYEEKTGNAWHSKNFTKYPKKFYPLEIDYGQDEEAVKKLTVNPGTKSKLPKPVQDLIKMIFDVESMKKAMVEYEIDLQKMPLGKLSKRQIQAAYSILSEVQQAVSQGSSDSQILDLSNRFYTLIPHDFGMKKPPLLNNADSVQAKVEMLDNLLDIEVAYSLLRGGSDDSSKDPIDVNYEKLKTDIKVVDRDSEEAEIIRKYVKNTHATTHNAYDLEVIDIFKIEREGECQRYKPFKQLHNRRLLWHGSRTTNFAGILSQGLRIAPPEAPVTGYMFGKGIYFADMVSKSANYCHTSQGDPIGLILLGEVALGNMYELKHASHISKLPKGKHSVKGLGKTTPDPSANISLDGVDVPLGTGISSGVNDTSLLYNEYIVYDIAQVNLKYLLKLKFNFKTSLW

Turning to `O=c1c(O)c(-c2ccc(O)c(-c3c(O)cc(O)c4c(=O)cc(-c5ccc(O)cc5)oc34)c2)oc2cc(OS(=O)(=O)O)cc(O)c12`, the IC50 in assay [1] was determined as 0.1158 µg/mL; in assay [1] (read-out: IC50), 510 nM.

`O=c1cc(-c2ccc(O)c(-c3c(O)cc(O)c4c(=O)cc(-c5ccc(OS(=O)(=O)O)cc5)oc34)c2)oc2cc(O)cc(O)c12`: the IC50 was determined as 0.0804 µg/mL in assay [1] and 170 nM in assay [1] (read-out: IC50). Further, the result in the assay on A549 [2], in the assay with A549 [3] and in the assay on A549 [4] was Active.

As for `O=c1c(O)c(-c2ccc(O)c(-c3c(O)cc(O)c4c(=O)cc(-c5ccc(OS(=O)(=O)O)cc5)oc34)c2)oc2cc(OS(=O)(=O)O)cc(O)c12`, the IC50 in assay [1] (read-out: IC50) came out at 240 nM.

Regarding `O=c1cc(-c2ccc(O)c(-c3c(O)cc(O)c4c(=O)cc(-c5ccc(O)cc5)oc34)c2)oc2cc(O)cc(O)c12` [AMENTOFLAVONE], the IC50 in assay [1] turned out to be 0.1398 µg/mL; in assay [1] (read-out: IC50), 120 nM. For the same compound, the result in the assay on A549 [5], with A549 [6] and in the assay with A549 [7] was Active.

Source of the values: ChEMBL document CHEMBL5131411, “Evaluation of amentoflavone metabolites on PARP-1 inhibition and the potentiation on anti-proliferative effects of carboplatin in A549 cells” (Bioorg Med Chem Lett, 2022).
